Source: BindingDB's records for patent US20250313563 (The Broad Institute, 2025)
Where “and” joins values, the source holds several entries; their conditions need not be identical. Identical values can stand only once.

Columns and labels:
[1] = molecular target: Glycogen synthase kinase-3 alpha (Homo sapiens, UniProt P49840); experiment: TR-FRET Assay
In short: (§1)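 Compound was preincubated 30 min in assay buffer before the kinase reaction, which was quenched with EDTA. Phosphorylation was detected by TR-FRET after adding a solution of 40 nM streptavidin-d2 and 2 nM Tb-labelled anti-pSer641 antibody.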

[2] = molecular target: Glycogen synthase kinase-3 beta (Homo sapiens, UniProt P49841); experiment: TR-FRET Assay
Sequence of Glycogen synthase kinase-3 beta (P49841 whole entry): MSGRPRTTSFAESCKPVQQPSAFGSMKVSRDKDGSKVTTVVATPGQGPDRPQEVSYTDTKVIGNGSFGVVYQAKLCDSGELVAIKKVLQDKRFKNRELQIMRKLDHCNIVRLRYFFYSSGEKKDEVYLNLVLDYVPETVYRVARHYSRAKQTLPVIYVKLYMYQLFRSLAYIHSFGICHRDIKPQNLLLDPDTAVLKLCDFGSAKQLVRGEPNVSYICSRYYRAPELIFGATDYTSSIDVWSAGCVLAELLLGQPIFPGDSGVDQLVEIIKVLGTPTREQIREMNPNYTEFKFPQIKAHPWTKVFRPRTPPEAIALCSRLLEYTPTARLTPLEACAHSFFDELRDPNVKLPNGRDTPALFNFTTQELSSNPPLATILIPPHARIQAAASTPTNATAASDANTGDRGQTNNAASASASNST
In short: as §1

Sequence of Glycogen synthase kinase-3 alpha (P49840 whole entry): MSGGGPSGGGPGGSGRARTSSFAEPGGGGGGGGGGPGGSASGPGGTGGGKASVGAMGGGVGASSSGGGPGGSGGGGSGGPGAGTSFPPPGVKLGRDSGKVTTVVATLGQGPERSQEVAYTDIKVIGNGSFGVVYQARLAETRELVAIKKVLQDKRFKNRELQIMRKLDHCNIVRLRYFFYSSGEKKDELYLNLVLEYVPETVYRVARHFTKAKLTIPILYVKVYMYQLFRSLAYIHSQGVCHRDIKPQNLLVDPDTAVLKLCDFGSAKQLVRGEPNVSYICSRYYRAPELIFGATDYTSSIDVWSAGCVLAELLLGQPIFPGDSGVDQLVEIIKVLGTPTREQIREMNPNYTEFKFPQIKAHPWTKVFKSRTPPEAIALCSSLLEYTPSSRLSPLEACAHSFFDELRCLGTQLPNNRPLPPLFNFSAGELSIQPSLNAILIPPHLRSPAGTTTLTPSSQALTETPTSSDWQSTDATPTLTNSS

SMILES | IC50 [1] | IC50 [2]
CCC1(c2cccc(-c3cncn3C)c2)C2=C(CC(C)(C)CC2=O)NC2N=NC(C)=C21 (stereo unspecified) [US20250313563, Compound 884001] | < 100 nM | < 100 nM
CCC1(c2cccc(-c3cnn4c3CCCC4)c2)C2=C(CC(C)(C)CC2=O)NC2N=NC(C)=C21 (stereo unspecified) [US20250313563, Compound 884002] | < 100 nM | < 100 nM
CCC1(c2cccc(-c3cn(C)nc3C)c2)C2=C(CC(C)(C)CC2=O)NC2N=NC(C)=C21 (stereo unspecified) [US20250313563, Compound 884003] | < 100 nM | < 100 nM
CC1(C)CC(=O)C2=C(C1)NC1=C(CN=N1)[C@]21C[C@@H](n2cccn2)C1 [US20250313563, Compound 884004] | < 100 nM | < 100 nM
CC1(C)CC(=O)C2=C(C1)NC1=C(CN=N1)[C@]21C[C@H](n2cccn2)C1 [US20250313563, Compound 884005] | < 100 nM | < 100 nM
CC(C)[C@@H]1C[C@]2(CCO1)C1=C(N=NC1)NC1=C2C(=O)CC(C)(C)C1 [US20250313563, Compound 884013] | 1000 to 5000 nM | > 5000 nM
CC(C)[C@H]1C[C@@]2(CCO1)C1=C(N=NC1)NC1=C2C(=O)CC(C)(C)C1 [US20250313563, Compound 884014] | 1000 to 5000 nM | > 5000 nM
CC1(C)CC(=O)C2=C(C1)NC1=C(CN=N1)[C@]21CCO[C@@H](C(F)(F)F)C1 [US20250313563, Compound 884021] | 100 to 1000 nM | 100 to 1000 nM
CC1(C)CC(=O)C2=C(C1)NC1=C(CN=N1)[C@@]21CCO[C@H](C(F)(F)F)C1 [US20250313563, Compound 884022] | 100 to 1000 nM | 100 to 1000 nM
CC1(C)CC(=O)C2=C(C1)NC1=C(CN=N1)[C@]21CCO[C@H](C(F)(F)F)C1 [US20250313563, Compound 884023] | 1000 to 5000 nM | > 5000 nM
CC1(C)CC(=O)C2=C(C1)NC1=C(CN=N1)[C@@]21CCO[C@@H](C(F)(F)F)C1 [US20250313563, Compound 884024] | 1000 to 5000 nM | > 5000 nM
CC1(C)CCC2(CC1)C1=C(N=NC1)NC1=C2C(=O)CC(C)(C)C1 [US20250313563, Compound 884107] | < 100 nM | 100 to 1000 nM
CCN(C(C)=O)c1cccc(C2(CC)C3=CN=NC3NC3=C2C(=O)CC(C)(C)C3)c1 (stereo unspecified) [US20250313563, Compound 884109] | < 100 nM | < 100 nM
CCC1(c2cccc(N(Cc3ccccc3)C(C)=O)c2)C2=CN=NC2NC2=C1C(=O)CC(C)(C)C2 (stereo unspecified) [US20250313563, Compound 884110] | < 100 nM | < 100 nM
O=C1CCCC2=C1C1(CCOCC1)C1=C(N=NC1)N2 [US20250313563, Compound 884111] | 1000 to 5000 nM | > 5000 nM
CC1CC(=O)C2=C(C1)NC1=C(CN=N1)C21CCOCC1 (stereo unspecified) [US20250313563, Compound 884112] | 100 to 1000 nM | 100 to 1000 nM
C[C@@H]1C[C@H](C)C[C@]2(C1)C1=C(N=NC1)NC1=C2C(=O)CC(C)(C)C1 [US20250313563, Compound 884113] | 100 to 1000 nM | 1000 to 5000 nM
C[C@@H]1C[C@H](C)C[C@@]2(C1)C1=C(N=NC1)NC1=C2C(=O)CC(C)(C)C1 [US20250313563, Compound 884114] | 100 to 1000 nM | 100 to 1000 nM
CC[C@]1(c2cccc(N3CCCCC3)c2)C2=C(CC(C)(C)CC2=O)NC2N=NC(C)=C21 (stereo partly specified) [US20250313563, Compound 884115] | 100 to 1000 nM | 100 to 1000 nM
CC[C@@]1(c2cccc(N3CCCCC3)c2)C2=C(CC(C)(C)CC2=O)NC2N=NC(C)=C21 (stereo partly specified) [US20250313563, Compound 884116] | < 100 nM and 100 to 1000 nM | < 100 nM and 100 to 1000 nM
CC[C@@]1(c2cccc(OC)c2)C2=C(CC(C)(C)CC2=O)NC2N=NC(C(F)(F)F)=C21 (stereo partly specified) [US20250313563, Compound 884117] | < 100 nM | < 100 nM and 100 to 1000 nM
CC[C@]1(c2cccc(OC)c2)C2=C(CC(C)(C)CC2=O)NC2N=NC(C(F)(F)F)=C21 (stereo partly specified) [US20250313563, Compound 884118] | 100 to 1000 nM | 1000 to 5000 nM
CO[C@H]1CC[C@@]2(CC1)C1=C(N=NC1)NC1=C2C(=O)CC(C)(C)C1 [US20250313563, Compound 884119] | < 100 nM | 100 to 1000 nM
CO[C@H]1CC[C@]2(CC1)C1=C(N=NC1)NC1=C2C(=O)CC(C)(C)C1 [US20250313563, Compound 884120] | 100 to 1000 nM | 100 to 1000 nM

SMILES | IC50 [1] | IC50 [2]
CCC1(c2cccc(N3CCCCCC3)c2)C2=CN=NC2NC2=C1C(=O)CC(C)(C)C2 (stereo unspecified) [US20250313563, Compound 885088] | 100 to 1000 nM | 100 to 1000 nM
CCC1(c2cccc(N3CC4CCC(C4)C3)c2)C2=CN=NC2NC2=C1C(=O)CC(C)(C)C2 (stereo unspecified) [US20250313563, Compound 885099] | 100 to 1000 nM | 1000 to 5000 nM
CCC1(c2cccc(N3CC4CCC3C4)c2)C2=CN=NC2NC2=C1C(=O)CC(C)(C)C2 (stereo unspecified) [US20250313563, Compound 885110] | < 100 nM | 100 to 1000 nM
CCC1(c2cccc(N3CC4CCC3CC4)c2)C2=CN=NC2NC2=C1C(=O)CC(C)(C)C2 (stereo unspecified) [US20250313563, Compound 885120] | < 100 nM | 100 to 1000 nM
CCC1(c2cccc(N3CCC[C@@H]3C)c2)C2=CN=NC2NC2=C1C(=O)CC(C)(C)C2 (stereo partly specified) [US20250313563, Compound 885188] | 100 to 1000 nM | 100 to 1000 nM
CCC1(c2cccc(N3CCCC[C@@H]3C)c2)C2=CN=NC2NC2=C1C(=O)CC(C)(C)C2 (stereo partly specified) [US20250313563, Compound 885217] | 100 to 1000 nM | 100 to 1000 nM
CCC1(c2cccc(N3CCCC[C@H]3C)c2)C2=CN=NC2NC2=C1C(=O)CC(C)(C)C2 (stereo partly specified) [US20250313563, Compound 885228] | < 100 nM | 100 to 1000 nM
CCC1(c2cccc(N3C[C@H](C)C[C@H](C)C3)c2)C2=CN=NC2NC2=C1C(=O)CC(C)(C)C2 (stereo partly specified) [US20250313563, Compound 885237] | 100 to 1000 nM | 1000 to 5000 nM
CCN(c1cccnc1)c1cccc(C2(CC)C3=CN=NC3NC3=C2C(=O)CC(C)(C)C3)c1 (stereo unspecified) [US20250313563, Compound 885331] | < 100 nM | < 100 nM
CCC1(c2cccc(N(c3cccnc3)C(C)C)c2)C2=CN=NC2NC2=C1C(=O)CC(C)(C)C2 (stereo unspecified) [US20250313563, Compound 885344] | < 100 nM | < 100 nM
CCC1(c2cccc(N(C)c3cccnc3C)c2)C2=CN=NC2NC2=C1C(=O)CC(C)(C)C2 (stereo unspecified) [US20250313563, Compound 885355] | 100 to 1000 nM | 1000 to 5000 nM
CCN(c1cccc(C2(CC)C3=CN=NC3NC3=C2C(=O)CC(C)(C)C3)c1)c1cccnc1C (stereo unspecified) [US20250313563, Compound 885367] | 100 to 1000 nM | 1000 to 5000 nM
CCC1(c2cccc(N(C)c3cnn(C)c3)c2)C2=CN=NC2NC2=C1C(=O)CC(C)(C)C2 (stereo unspecified) [US20250313563, Compound 885382] | 100 to 1000 nM | 1000 to 5000 nM
CCC1(c2cccc(N(C)c3nccn3C)c2)C2=CN=NC2NC2=C1C(=O)CC(C)(C)C2 (stereo unspecified) [US20250313563, Compound 885402] | 100 to 1000 nM | 1000 to 5000 nM
CC[C@]1(c2cccc([C@H]3CCOC3)c2)C2=CN=NC2NC2=C1C(=O)CC(C)(C)C2 (stereo partly specified) [US20250313563, Compound 889556] | < 100 nM | < 100 nM
CC[C@]1(c2cccc([C@@H]3CCOC3)c2)C2=CN=NC2NC2=C1C(=O)CC(C)(C)C2 (stereo partly specified) [US20250313563, Compound 889557] | < 100 nM | < 100 nM
CC[C@@]1(c2cccc([C@H]3CCOC3)c2)C2=CN=NC2NC2=C1C(=O)CC(C)(C)C2 (stereo partly specified) [US20250313563, Compound 889558] | < 100 nM | 100 to 1000 nM
CC[C@@]1(c2cccc([C@@H]3CCOC3)c2)C2=CN=NC2NC2=C1C(=O)CC(C)(C)C2 (stereo partly specified) [US20250313563, Compound 889565] | 100 to 1000 nM | 1000 to 5000 nM
CC1(C)CC(=O)C2=C(C1)NC1=C(CN=N1)C21CSC1 [US20250313563, Compound 889567] | < 100 nM | 100 to 1000 nM
CC1(C)CC(=O)C2=C(C1)NC1=C(CN=N1)C21CN(C(=O)OCc2ccccc2)C1 [US20250313563, Compound 889568] | 100 to 1000 nM | 1000 to 5000 nM
CC1(C)CC(=O)C2=C(C1)NC1=C(CN=N1)C21COC1 [US20250313563, Compound 889569] | 100 to 1000 nM | 100 to 1000 nM
CC1(C)CC(=O)C2=C(C1)NC1=C(CN=N1)C21CCCNCC1 (stereo unspecified) [US20250313563, Compound 889571] | > 5000 nM | > 5000 nM
O=C1CC(C(F)(F)F)CC2=C1C1(CCOCC1)C1=C(N=NC1)N2 (stereo unspecified) [US20250313563, Compound 889572] | 100 to 1000 nM | 100 to 1000 nM
O=C1CC2(CCOC2)CC2=C1C1(CCOCC1)C1=C(N=NC1)N2 (stereo unspecified) [US20250313563, Compound 889573] | < 100 nM | 100 to 1000 nM
